Like-named read-outs stand apart in the source and are kept apart here.
What was measured:
PC-3 xenograft = conditions: Table 14; mice treated with gossypol and/or radiation
[1] = test system: androgen independent prostate cancer PC-3 xenograft; assay: PC-3 xenograft, (−)-gossypol alone and with docetaxel (Example 22); conditions: for weight loss: mice treated with gossypol
[2] = test system: human breast cancer MDA-MB-231 (2LMP) xenograft
MDA-MB-231 cells = assay: 5 day MTT cell growth assay, MDA-MB-231; type: cell-based, human; conditions: Homo sapiens, MDA-MB-231, 120 h, read-out: IC50, inhibition of MDA-MB-231 cell growth
Procedure: For example, the ability of gossypol compounds to inhibit MDA-MB-231 cell growth was tested in a 5 day MTT assay.
Cells were seeded in 24 or 96-well-plates and gossypol compounds were prepared at 2-10 fold dilutions in suitable medium. Inhibition of cell viability was determined by treating the cells with the gossypol compounds for 24 hrs. […] Inhibition of cell growth was determined by treating cells with gossypol compounds for 3-6 days. […] In some embodiments, MTT assays are used to determine cell inhibition.
Absorbance at 540 nm is used to measure the amount of formazan product.

[3] = test system: A549 non-small cell lung carcinoma xenograft; assay: A549 non-small cell lung carcinoma xenograft, (−)-gossypol with paclitaxel; conditions: Table 13; mice treated with gossypol and/or Paclitaxel
[4] = test system: MDA-MB-231 breast cancer cells; assay: Annexin-V flow cytometry apoptosis, MDA-MB-231; type: cell-based, human; conditions: 24 hours
Procedure: Further tests using Annexin-V flow cytometry (FACS) assays were conducted to more quantitatively assess the ability of gossypol to induce apoptosis in MDA-MB-231 breast cancer cells. […] It was observed that 5.0 μM of gossypol induced 59% of the MDA-MB-231 cells to undergo apoptosis. While the present invention is not limited to a particular mechanism(s), it is contemplated that induction of apoptosis by gossypol is dose-dependent. At administrations of 10.0 and 20.0 μM, respectively, gossypol induced 74% and 96% of cancer cells, again respectively, to undergo apoptosis. MDA-MB-231 cells overexpress Bcl-2 and Bcl-XL.
In still further embodiments, the present invention used cell level detection of apoptotic events by flow cytometry. Cells that had undergone apoptotic events were detected by flow cytometry using a FACSCAN instrument (Becton Dickinson, Franklin Lakes, N.J.) with 488-nm laser line and analyzed using CELL QUEST software (Becton Dickinson, Franklin Lakes, N.J.). Phosphatidylserine exposed on the outside of the cells (one of the major characteristics of apoptosis) was determined by TACSTM Annexin V-FITC Kit (Trevigen, Gaithersburg, Md.). Annexin V-FITC fluorescence is detected in FL-1, and propidium iodide was detected in FL-2. (Hail Jr., and R. Lotan, R. Cancer Epidemiol. Biomarkers Prev., 9:1293-1301 (2000)).
Apoptosis was further detected and quantified using Annexin-V-fluorescence assays. […] Cells were collected and washed with PBS and stained with Annexin-V-Fluorescein and propidium iodide (PI) following standard protocols. Stained cells were analyzed with a flow cytometer (Becton Dickinson) using 488 nm excitation and a 515 nm bandpass filter for fluorenscein detection, and a >600 nm filter for PI detection.

[5] = test system: androgen-independent prostate PC-3 xenograft; assay: PC-3 xenograft, (−)-gossypol and radiation (Example 20); type: in vivo, nude mice; conditions: Table 15; mice treated with gossypol and/or radiation
Procedure: In this experiment, 60 male 5 to 6 week old NCI athymic NCr-nu/nu nude mice were inoculated in each flank with an injection of about 5×10^6 PC-3 cells. The best 40 xenograft recipients were used. Tumors averaged about 70 mm^3. (−)-Gossypol compounds were first dissolved in ethanol and diluted with sterile water within 5 min to a final ethanol concentration of 10% prior to each administration. Irradiated test animals were restrained, placed under the X-ray head, and covered with lead shields to ensure that the tumor area was exposed to radiation. All oral administrations of (−)-gossypol and 10% alcohol were given by gavage.
The 40 best xenograft mice were divided into experimental groups as follows: radiation only (Groups 1 and 2), 2 Gy administered 5 times/week for 3 weeks, and daily oral administration of 10% alcohol (as vehicle control); radiation plus gossypol (Groups 3 and 4), 2 Gy administered 5 times a week for 3 weeks, and 10 mg/kg of (−)-gossypol administered orally 5 times/week for 4 weeks (8 mice each Group); gossypol only (Groups 5 and 6), 10 mg/kg (−)-gossypol administered orally every day for 4 weeks (8 mice each Group); vehicle control (Groups 7 and 8), daily oral administration of 10% alcohol (8 mice each Group as vehicle control); large tumor animals (combination of Groups 9-12), tumors allowed to reach 500 mm^3.
Other remaining tumors in this group appear pale yellowish and soft as compared with that in control group with hard solid and reddish appearance, indicating tumor blood supply was inhibited.

[6] = test system: human breast cancer xenograft MDA-MB-231; conditions: for inhibition of tumor growth: three weeks, day 29
Procedure: The potential of gossypol compounds as anticancer therapeutics was further evaluated in MDA-231 xenograft mice. […] A control group of five mice received no gossypol. In the treated mice, gossypol was administered daily in two different oral doses, a 30 and a 90 mg/kg dose, for three weeks.
A group of 10 mice received an orally administered daily dose of 30 mg/kg gossypol starting at day 7 and lasting for 4 weeks. […] Each experimental group had 10 animals.
As a positive control, TAXOTERE was used at a dose of 7.5 mg/kg. Control group mice received either no treatment or vehicle alone. To achieve statistic significance, a minimum of 10 mice per group was used in the combination regimes.
For all tests, mice were randomized and then injected in the fat pad with 1-5×10^6 cells prepared in serum-free medium. The animals were measured and weighed twice each week during the treatment period, followed by twice a week measurements for an additional 4-6 weeks. A gross visual necropsy of each animal was performed at death or terminal sacrifice.

Bcl-XL [7] = target: T1, Bcl-XL (Homo sapiens, UniProt Q07817, DEL45-84); assay: FP binding assay, Flu-Bak-BH3 16-mer tracer and His-fused Bcl-XL; conditions: FIG. 3, 6A, 6B
T1 construct: His-tag (N); made in house

[8] = Elimination half-life in humans; type: in vivo
Source text: In some embodiments, the present invention contemplates that the longer residency of the (+)-gossypol enantiomer is potentially beneficial in certain prolonged gossypol treatments methods. Therefore, in some embodiments, the (+)-gossypol enantiomer is potentially more toxic to cells. […]

Bcl-XL [9] = target: T1, Bcl-XL; assay: 15N HSQC NMR binding to Bcl-XL
[10] = test system: MCF-7 breast cancer cell line; assay: Growth inhibition with TAXOL in fixed ratio, MCF-7; type: cell-based, human; conditions: combinations in a fixed ratio to TAXOL
Bcl-2 = target: T2, Bcl-2 (Homo sapiens, UniProt P10415); assay: FP binding assay, Flu-Bad-25 peptide and GST-fusion Bcl-2 (FIG. 4, 45)
T2 construct: purchased Santa Cruz Biotechnology

Bcl-XL [11] = target: T1, Bcl-XL; assay: FP binding assay, Flu-Bid 21-residue peptide and Bcl-XL (FIG. 5, 46)
[12] = Table 8, docetaxel 7.5 mg/kg i.v. q week for 3 weeks, alone

T1 sequence (Q07817 with tags, fused parts or gaps DEL45-84 limits assumed): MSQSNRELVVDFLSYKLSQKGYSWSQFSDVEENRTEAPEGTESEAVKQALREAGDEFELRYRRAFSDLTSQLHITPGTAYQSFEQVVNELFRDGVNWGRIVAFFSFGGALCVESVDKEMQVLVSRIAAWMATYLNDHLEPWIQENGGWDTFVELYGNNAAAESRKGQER
T2 sequence (P10415 1-205 limits assumed): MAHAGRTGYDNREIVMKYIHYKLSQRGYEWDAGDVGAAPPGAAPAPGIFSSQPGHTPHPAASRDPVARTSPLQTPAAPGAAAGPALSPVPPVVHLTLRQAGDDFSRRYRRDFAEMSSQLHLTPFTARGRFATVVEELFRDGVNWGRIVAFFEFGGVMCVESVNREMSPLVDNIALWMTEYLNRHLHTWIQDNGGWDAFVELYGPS

Cc1cc2c(C(C)C)c(O)c(O)c(C=O)c2c(O)c1-c1c(C)cc2c(C(C)C)c(O)c(O)c(C=O)c2c1O (racemic) [gossypol]
weight loss (PC-3 xenograft): There was no significant weight loss
tumor growth inhibition on day 42 ([1]; Table 9, PC-3 flank xenografts (~100 mm^3 at start), NCr-nu nude mouse, 15 mg/kg daily p.o., alone): (15.6% on day 42). The (−)-gossypol
weight loss ([1]; Table 9): There was no weight loss in mice
tumor growth inhibition on day 56 compared to vehicle controls ([1]; Table 10, PC-3 flank xenografts (~120 mm^3 at start), NCr-nu nude mouse, daily p.o. for 28 days, alone (racemic 15 mg/kg)): (39% on day 56, p = 0.145) compared
weight loss ([1]; Table 10): There was no weight loss in mice
weight loss or death ([2]; Table 8, mice treated with gossypol): There was no weight loss or death in
IC50 (MDA-MB-231 cells): 2000 nM
weight loss [3]: There was no weight loss in mice
cells induced to undergo apoptosis ([4]; 5.0 μM): 59%
cells induced to undergo apoptosis ([4]; 10.0 μM): 74%
cells induced to undergo apoptosis ([4]; 20.0 μM): 96%
weight loss [5]: There was no significant weight loss
inhibition of tumor growth ([6]; 30 mg/kg oral daily): more than 70%
inhibition of tumor growth ([6]; 90 mg/kg oral daily): more than 70%
weight loss or deaths ([6]; 30 and 90 mg/kg oral daily): No weight loss or deaths

CC1=C(C2=C(C)C(=O)c3c(c(C=O)c(O)c(O)c3C(C)C)C2=O)C(=O)c2c(C=O)c(O)c(O)c(C(C)C)c2C1=O (racemic) [gossypolone]
inhibition of binding between Bak BH3 peptide and Bcl-XL (Bcl-XL [7]): competitive inhibition of Bak BH3 peptide binding to Bcl-XL protein

Cc1cc2c(C(C)C)c(O)c(O)c(C=O)c2c(O)c1-c1c(C)cc2c(C(C)C)c(O)c(O)c(C=O)c2c1O [(+)-gossypol]
T1/2 of elimination relative to (−)-gossypol [8]: 29 times
binding to Bcl-XL by NMR (Bcl-XL [9]): bind to the BH3 binding groove in Bcl-XL
IC50 [10]: 22900 nM
inhibition of binding between Bid BH3 peptide and Bcl-2 (Bcl-2; FIG. 4): directly inhibit binding between Bid BH3 peptide and Bcl-2
inhibition of binding between Bad BH3 peptide and Bcl-XL (Bcl-XL [11]): directly inhibit binding between Bad BH3 peptide and Bcl-XL

CCN=Cc1c(O)c(O)c(C(C)C)c2cc(C)c(-c3c(C)cc4c(C(C)C)c(O)c(O)c(C=NCC)c4c3O)c(O)c12 [(−)-gossypol ethyl Schiff's base]
inhibition of binding between Bak BH3 peptide and Bcl-XL (Bcl-XL [7]): time-dependent inhibition

CSCC[C@H](NC(=O)[C@H](CCCNC(=N)N)NC(=O)[C@H](CCCNC(=N)N)NC(=O)[C@H](CC(C)C)NC(=O)[C@H](CCC(=O)O)NC(=O)[C@H](CCCNC(=N)N)NC(=O)CNC(=O)[C@H](Cc1ccc(O)cc1)NC(=O)[C@H](CCCNC(=N)N)NC(=O)[C@H](CCC(N)=O)NC(=O)[C@H](C)NC(=O)[C@H](C)NC(=O)[C@H](Cc1c[nH]c2ccccc12)NC(=O)[C@H](CC(C)C)NC(=O)[C@H](CC(N)=O)NC(=O)c1ccc2c(c1)C1(OC2=O)c2ccc(O)cc2Oc2cc(O)ccc21)C(=O)N[C@@H](CO)C(=O)N[C@@H](CC(=O)O)C(=O)N[C@@H](CCC(=O)O)C(=O)N[C@@H](Cc1ccccc1)C(=O)N[C@H](C(=O)N[C@@H](CC(=O)O)C(=O)N[C@@H](CO)C(=O)N[C@@H](Cc1ccccc1)C(=O)N[C@@H](CCCCN)C(=O)N[C@@H](CCCCN)C(=O)O)C(C)C [Bad 25-mer BH3 peptide, reference compound]
Kd (Bcl-2; FIG. 26): 6.9 nM

CC(=O)O[C@@]12CO[C@@H]1C[C@H](O)[C@@]1(C)C(=O)[C@H](O)C3=C(C)[C@@H](OC(=O)[C@H](O)[C@@H](NC(=O)OC(C)(C)C)c4ccccc4)C[C@@](O)([C@@H](OC(=O)c4ccccc4)[C@H]21)C3(C)C [Docetaxel, docetaxel, reference compound]
tumor growth inhibition [2, 12]: achieved about 70% tumor growth
tumors grew back, time after treatment stopped [2, 12]: back 2-3 weeks after treatment
tumor growth in second round of treatment ([2]; second round from day 45, tumors about 2,000 mm^3): continued to grow

Reference: patent publication US8163805B2, “Small molecule antagonists of Bcl-2 family proteins” (The Regents of the University of Michigan, priority 2001, dated 2012)
